From US20140272000A1, “Liquids and Foodstuffs Containing beta-hydroxy-beta-methylbutyrate (HMB) in the Free Acid Form and Methods of Manufacturing or Producing the Same” (Metabolic Technologies, Inc., priority 2013, published 2014)

Assays:
Type in all cases: physicochemical
[1] = Stability of product composition (physical appearance) with the addition of HMB, free acid and calcium salt forms; conditions: Ensure Clear, two flavors, 1 g CaHMB or 0.8 g HMB free acid in 40 ml
Experimental: • 1. N=2 (Two flavors of a commercially available ready-to-drink soluble-protein product; Ensure Clear, pH approximately 2.74) • 2. Label the glass bottles A1-A3 and B1-B3. The labels correspond to the following conditions:
• 3. To bottles A2 and B2 1 g of CaHMB MTI 1208-100-02 TSI 12070630 added. • 4. To bottles A3 and B3 0.8 g of HMB Free Acid MTI 1103-100-09 Lot 11010084 added. • 5. 40 ml of Peach flavored product added to the bottles labeled A1-A3. • 6. 40 ml of Blueberry Pomegranate flavored product added to the bottles labeled B1-B3. • 7. Bottles were sealed with rubber caps and crimped shut. Then, they were mixed well and placed on shelf. • 8. Appearances were noted and photos were taken daily (bottles were not disturbed).
Table 2 reports the physical appearance of the ready-to-drink soluble-protein product (n=2) following the addition of CaHMB or HMB free acid and mixing. HMB was not added to the control bottles. Day 1 was recorded after initial mixing.

[2] = Long term stability (appearance) in soluble-protein drinks; conditions: 42 days; ISOPURE protein drink, GNC protein juice, Gatorade Recover, Spartos protein water; 250 mg CaHMB or 200 mg HMB FA in 40 ml
Experimental: • 1. Rinse 12 glass bottles with ethanol and let air dry overnight. • 2. Label the glass bottles A1-A3, B1-B3, C1-C3 and D1-D3. The labels correspond to the following conditions:
• 3. To bottles A2-D2 CaHMB MTI 1208-100-02 TSI 12070630 was used. • 4. To bottles A3-D3 HMB Free Acid MTI 1103-100-09 Lot 11010084 was used. • 5. Add 40 ml of ISOPURE protein drink to A1-A3, 40 ml of GNC protein juice to B1-B3, 40 ml Gatorade Recover to C1-C3, and 40 ml Spartos protein water to D1-D3. • 6. Flush with nitrogen and seal the bottles with rubber caps and metal clamp caps. • 7. Mix well. • 8. Take photo of bottles A1-A3, B1-B3, C1-C3, and D1-D3 every Friday. The photos appear in FIG. 2a-2d. The following tables 6-9 provide the nutritional information for each of the liquids tested (ISOPURE, GNC Protein Juice, Gatorade G3-Recover, and Spartos protein water.)

[3] = General observation on addition of HMB forms to liquids
[4] = Stability of HMB-acid at various concentrations in soluble protein (ISOPURE protein drink) over 120 days, HPLC
Experimental: This experiment was designed to observe the stability of HMB-acid at various concentrations in soluble protein over 120 days.
To analyze the stability of HMB free acid in the soluble protein (ISOPURE protein drink, Natures Best®, Hauppauge, N.Y.), different concentrations of HMB free acid were added to the recommended serving size of ISOPURE protein drink. The three concentrations were 300 mg/240 ml, 1000 mg/240 ml, and 3000 mg/240 ml. HMB free acid was measured for each solution using HPLC at 5 different time points: 0, 30, 60, 90, and 120 d. HMB free acid used was MTI 1301-100-03 (Lot 120111036). ISOPURE protein drink used was Lot 1212111132310. ISOPURE protein drink has a pH of approximately 2.54. All glassware and supplies used were autoclaved in preparation of the three different concentrations of HMB free acid in ISOPURE protein drink for the 5 different time points. Materials to be autoclaved were as follows: glass bottles, rubber and metal seals, pipette tips, and graduated cylinder. Autoclave Method #1 for dry goods in Building 3 of ISU Research Park was used.
• For bottles in group A, 60 mg of HMBFA into each of the five bottles was added, and then 48 ml of ISOPURE protein drink was added. The HMBFA concentration was 1.25 mg/ml. • For bottles in group B 200 mg of HMBFA into each of the five bottles was added, and then 48 ml of ISOPURE protein drink was added. The HMBFA concentration was 4.16 mg/ml. • For bottles in group C, 600 mg of HMBFA into each of the five bottles was, and then 48 ml of ISOPURE protein drink was added.
Each sample bottle was flushed with nitrogen and then the top of the bottle was sealed with rubber caps, crimped shut and mix well. • One bottle of each concentration was tested for HMB using SOP 113-04 HMB (modified standard curve), at Time 0, 30, 60, 90, and 120 d.
To prepare the samples for testing, 0.5 ml of the sample was transferred to a microcentrifuge tube in quadruplet. Then 0.25 ml of KIV internal standard added to standards and three of each sample set. Finally, 0.25 ml 0.2M phosphate buffer was added to the three samples with KIV internal standard and 0.5 ml 0.2M phosphate buffer to the samples not containing KIV.
The samples were considered stable with a ±5% of expected change HMB concentration over the four months with an allowable ±3% analytical variation. A linear regression was conducted on the data as a secondary measure of stability.

[5] = Day 1 (after initial mixing), pH approximately 2.74

Row | Compound | Physical appearance [1, 5] | Physical appearance ([1]; Day 7, bottles not disturbed) | Physical appearance ([1]; Day 14, bottles not disturbed) | Physical appearance ([1]; Day 21, bottles not disturbed) | Appearance of the liquids [2] | Changes in the physical appearance on addition ([3]; commercially available soluble-protein containing ready-to-drink products) | Decrease in HMB free acid, of the expected amount ([4]; 300 mg/serving of soluble protein, 120 days (FIG. 3)) | Linear decrease over time (linear regression) ([4]; 300 mg/serving, 120 days, p<0.05) | Decrease in HMB free acid, of the expected amount ([4]; 1000 mg/serving of soluble protein, 120 days (FIG. 4)) | Linear decrease over time (linear regression) ([4]; 1000 mg/serving, 120 days, p<0.05) | Decrease in HMB free acid, of the expected amount ([4]; 3000 mg/serving of soluble protein, 120 days (FIG. 5)) | Linear decrease over time (linear regression) ([4]; 3000 mg/serving, 120 days, p<0.05) | Stability in a drink containing soluble protein ([4]; room temperature, 120 days) | Changes in HMB concentration over time ([4]; three concentrations (300, 1000, 3000 mg/serving) in ISOPURE, 120 d) | Linear decrease over time (linear regression) ([4]; three concentrations in ISOPURE, 120 d, p>0.05) | Going into solution when added to a liquid ([3]; added to a liquid, slight shaking)
1 | CC(C)(O)CC(=O)[O-].CC(C)(O)CC(=O)[O-].[Ca+2] [CaHMB, reference compound] | Cloudy | Defined Separation | Defined Separation w/Particulates | Defined Separation w/Particulates | cloudy and contain precipitate | sedimentation and clumping | – | – | – | – | – | – | – | – | – | –
2 | CC(C)(O)CC(=O)O [HMB free acid, β-Hydroxy-β-methylbutyrate] | Semi-Clear | Semi-Clear | Semi-Clear | Semi-Clear | clear and precipitate-free | – | less than 8% | no significant linear decrease | less than 8% | no significant linear decrease | less than 8% | no significant linear decrease | remaining stable | less than 8.0% | no significant linear decrease | goes into solution almost instantly
